Assay: refractive index (Na D-line) (dimensionless); wn = mass fraction of the nth substance listed
Details: 101.33 kPa, Liquid, Standard Abbe refractometry

CC(O)CO (configuration not stated) [1,2-propanediol] + O
refractive index
Details	278.15 K	283.15 K	288.15 K	293.15 K	298.15 K	303.15 K	308.15 K	313.15 K	318.15 K
w1 = 0.0988	1.3458	1.3454	1.3449	1.3444	1.3432	1.3432	1.3424	1.3416	1.3408
w1 = 0.198	1.3578	1.3571	1.3564	1.3557	1.355	1.3542	1.3534	1.3534	1.3516
w1 = 0.3312	1.374	1.373	1.372	1.371	1.3699	1.3689	1.368	1.3671	1.366
w1 = 0.5005	1.3946	1.3932	1.3918	1.3903	1.3889	1.3874	1.3862	1.3851	1.384
w1 = 0.672	1.4112	1.4098	1.4084	1.4069	1.4054	1.4039	1.4024	1.4008	1.3994
w1 = 0.8044	1.4231	1.4216	1.42	1.4184	1.4168	1.415	1.4135	1.4119	1.4103
w1 = 0.9481	1.4343	1.4328	1.4312	1.4296	1.428	1.4264	1.4248	1.4231	1.4214
w1 = 1	1.438	1.4364	1.4348	1.4332	1.4315	1.4299	1.4281	1.4264	1.4247

OCCCO [propan-1,3-diol] + O
refractive index
Details	w1 = 0.1113	w1 = 0.2226	w1 = 0.334	w1 = 0.4453	w1 = 0.501	w1 = 0.6123	w1 = 0.7236	w1 = 0.8349	w1 = 0.9277	w1 = 1
278.15 K	1.3466	1.3599	1.374	1.3866	1.3931	1.4066	1.4181	1.4289	1.4371	1.4436
283.15 K	1.3462	1.3592	1.3729	1.3856	1.3921	1.4055	1.4169	1.4276	1.4358	1.4423
288.15 K	1.3457	1.3586	1.3719	1.3845	1.391	1.4041	1.4157	1.4263	1.4345	1.4409
293.15 K	1.3452	1.3579	1.371	1.3835	1.3899	1.4029	1.4145	1.425	1.4332	1.4395
298.15 K	1.3446	1.3572	1.3702	1.3825	1.3888	1.4015	1.4133	1.4237	1.4319	1.4381
303.15 K	1.344	1.3564	1.3693	1.3815	1.3876	1.4002	1.4118	1.4224	1.4304	1.4368
308.15 K	1.3434	1.3558	1.3684	1.3804	1.3865	1.3989	1.4103	1.4211	1.4289	1.4354
313.15 K	1.3426	1.355	1.3676	1.3793	1.3854	1.3977	1.4089	1.4197	1.4275	1.434
318.15 K	1.3418	1.3541	1.3668	1.3782	1.3845	1.3965	1.4075	1.4182	1.4261	1.4325

Reference: the NIST ThermoML archive (doi:10.1021/acs.jced.8b00403)
